Test results as given in US10874643B2 (priority 2015, dated 2020).
Where a name gives a salt, the structure may show the parent alone. Read-outs that look alike come from different tables or passages of the source.

What was measured:
scn1Lab mutants [1] = test: Locomotion tracking assay of seizure behavior (96-well format); settings: for effect on locomotor seizure behavior: 1 mM; for effect on locomotor seizure behavior / inhibition of spontaneous seizure behavior, initial library screen / convulsive/seizure behavior with antihistamines: 5 dpf; for effect on locomotor seizure behavior / inhibition of spontaneous seizure behavior, initial library screen: 6-12 fish; for 5HT library first-pass locomotion screen: 250 μM, 6 fish per drug, positive hit = reduction in mean swim velocity ≥38%; for swim activity / seizure behavior, third evaluation: 100 μM, 10 fish per trial; for seizure-induced swim activity and mean velocity, re-test on separate clutch: 667, 67 and 6.7 μM; for inhibition of spontaneous seizure behavior, initial library screen: 667 μM; for convulsive/seizure behavior with antihistamines: shelf screen at 0.1-1 mM
scn1Lab mutants [2] = format: in vivo, zebrafish; settings: for forebrain electrographic seizure activity in the same mutants after the locomotion assay: 100 μM, mutant embedded in agar; for fish in which epileptiform activity became more frequent following exposure: 1 mM
wild-type larvae = test: DMSO toxicity in wild-type larvae; settings: dilutions between 0.01 and 100%; n=12 fish per concentration
[3] = 1 mM bath applied, agar-embedded mutants 5-6 dpf, seven fish per drug, vs baseline
[4] = 1 mM bath applied, 5-6 dpf, seven fish per drug, vs baseline

Structure (SMILES): CC(=O)Nc1nnc(S(N)(=O)=O)s1 [Acetazolamide]
- effect on locomotor seizure behavior (scn1Lab mutants [1]): increased seizure behavior

Structure (SMILES): COc1ccccc1N1CCN(CCN2C(=O)CC3(CCCC3)CC2=O)CC1 [BMY 7378, 8-(2-[4-(2-methoxyphenyl)-1-piperazinyl]ethyl)-8-azaspiro[4.5]decane-7,9-dione]
- 5HT library first-pass locomotion screen (scn1Lab mutants [1]): positive hits

Structure (SMILES): CN1CCC(c2c[nH]c3ccc(O)cc23)CC1 [BRL-54443, 3-(1-methylpiperidin-4-yl)-1H-indol-5-ol]
- 5HT library first-pass locomotion screen (scn1Lab mutants [1]): positive hits

Structure (SMILES): C#CCN(C)CCCOc1ccc(Cl)cc1Cl [Clorgiline]
- swim activity / seizure behavior, third evaluation (scn1Lab mutants [1]): reduced swim activity
- seizure-induced swim activity and mean velocity, re-test on separate clutch (scn1Lab mutants [1]): effective in reducing seizure-induced swim activity and mean velocity
- forebrain electrographic seizure activity in the same mutants after the locomotion assay (scn1Lab mutants [2]): electrographic seizure events were still observed

Structure (SMILES): C[S+](C)[O-] [DMSO]
- lethal DMSO concentration (wild-type larvae): > 25%

Structure (SMILES): C[C@]12N[C@H](Cc3ccccc31)c1ccccc12 [MK-801]
- epileptic seizure events in sample EEG traces (scn1Lab mutants [2]; zebrafish, in vivo): no suppression of epileptic events

Structure (SMILES): NCC(O)CC(=O)O (centres unmarked) [aminohydroxybutyric acid]
- inhibition of spontaneous seizure behavior, initial library screen (scn1Lab mutants [1]): ineffective

Structure (SMILES): CNCC[C@@H](Oc1ccccc1C)c1ccccc1 [atomoxetine]
- 5HT library first-pass locomotion screen (scn1Lab mutants [1]): positive hits

Structure (SMILES): O=C(CCCl)NCc1ccccc1 [beclamide]
- inhibition of spontaneous seizure behavior, initial library screen (scn1Lab mutants [1]): ineffective

Structure (SMILES): O=C1CC2(CCCC2)CC(=O)N1CCCCN1CCN(c2ncccn2)CC1 [buspirone]
- 5HT library first-pass locomotion screen (scn1Lab mutants [1]): positive hits

Structure (SMILES): NC(=O)N1c2ccccc2C=Cc2ccccc21 [carbamazepine]
- Epileptiform event frequency (burst frequency; interictal- and ictal-like discharges) (scn1Lab mutants [2]; [3]): increased burst frequency
- fish in which epileptiform activity became more frequent following exposure (scn1Lab mutants [2]; seven fish per drug): 2 of 7

Structure (SMILES): CN1C(=O)CN=C(c2ccccc2)c2cc(Cl)ccc21 [diazepam]
- effect on locomotor seizure behavior (scn1Lab mutants [1]): effectively inhibited seizure behavior
- Epileptiform event frequency (burst frequency; interictal- and ictal-like discharges) (scn1Lab mutants [2]; zebrafish, in vivo): reduced
- fractional time spent seizing (scn1Lab mutants [2]; zebrafish, in vivo): reduced

Structure (SMILES): CCC1(C)CC(=O)NC1=O (centres unmarked) [ethosuximide]
- effect on locomotor seizure behavior (scn1Lab mutants [1]): increased seizure behavior
- fish in which epileptiform activity became more frequent following exposure (scn1Lab mutants [2]; seven fish per drug): 4 of 7

Structure (SMILES): CC(=O)[C@H]1CC[C@H]2[C@@H]3CC[C@H]4C[C@](C)(O)CC[C@]4(C)[C@H]3CC[C@]12C [ganaxolone]
- effect on locomotor seizure behavior (scn1Lab mutants [1]): effective

Structure (SMILES): CC(C)CCCC(C)NC(C)C (centres unmarked) [iproheptine]
- convulsive/seizure behavior with antihistamines (scn1Lab mutants [1]): failed to suppress convulsive behavior

Structure (SMILES): Nc1nnc(-c2cccc(Cl)c2Cl)c(N)n1 [lamotrigine]
- effect on locomotor seizure behavior (scn1Lab mutants [1]): had no effect

Structure (SMILES): CC[C@@H](C(N)=O)N1CCCC1=O [levetiracetam]
- effect on locomotor seizure behavior (scn1Lab mutants [1]): had no effect

Structure (SMILES): C[C@H]1CNCCc2ccc(Cl)cc21 [lorcaserin]
- 5HT library first-pass locomotion screen (scn1Lab mutants [1]): positive hits

Structure (SMILES): CN1CCc2c(c3ccccc3n2Cc2ccccc2)C1.CN1CCc2c(c3ccccc3n2Cc2ccccc2)C1.O=S(=O)(O)c1cccc2c(S(=O)(=O)O)cccc12 [mebhydrolin napthalenesulfonate]
- convulsive/seizure behavior with antihistamines (scn1Lab mutants [1]): failed to suppress convulsive behavior

Structure (SMILES): CNS(=O)(=O)CCc1ccc2[nH]cc(C3CCN(C)CC3)c2c1 [naratriptap]
- 5HT library first-pass locomotion screen (scn1Lab mutants [1]): positive hits

Structure (SMILES): CN1CCC(=C2c3ccccc3Sc3ccccc32)CC1 [pimethixene maleate]
- convulsive/seizure behavior with antihistamines (scn1Lab mutants [1]): failed to suppress convulsive behavior

Structure (SMILES): [Br-].[K+] [potassium bromide]
- effect on locomotor seizure behavior (scn1Lab mutants [1]): effectively inhibited seizure behavior
- fractional time spent seizing (scn1Lab mutants [2]; [4]): reduced
- Epileptiform event frequency (burst frequency; interictal- and ictal-like discharges) (scn1Lab mutants [2]; [3]): reduced

Structure (SMILES): CN(C)CCc1c[nH]c2ccc(Cn3cncn3)cc12 [rizatriptan]
- 5HT library first-pass locomotion screen (scn1Lab mutants [1]): positive hits

Structure (SMILES): CC(C)(C)C(O)/C=C/c1ccc2c(c1)OCO2 (centres unmarked) [stiripentol]
- effect on locomotor seizure behavior (scn1Lab mutants [1]): effectively inhibited seizure behavior
- fractional time spent seizing (scn1Lab mutants [2]; [4]): reduced
- Epileptiform event frequency (burst frequency; interictal- and ictal-like discharges) (scn1Lab mutants [2]; [3]): reduced

Structure (SMILES): CNS(=O)(=O)Cc1ccc2[nH]cc(CCN(C)C)c2c1 [sumatriptan]
- 5HT library first-pass locomotion screen (scn1Lab mutants [1]): positive hits

Structure (SMILES): CCNC1(c2cccs2)CCCCC1=O (centres unmarked) [tiletamine]
- inhibition of spontaneous seizure behavior, initial library screen (scn1Lab mutants [1]): ineffective

Structure (SMILES): Cc1ccc(C(=O)C(C)CN2CCCCC2)cc1 (centres unmarked) [tolperisone]
- swim activity / seizure behavior, third evaluation (scn1Lab mutants [1]): reduced swim activity
- seizure-induced swim activity and mean velocity, re-test on separate clutch (scn1Lab mutants [1]): effective in reducing seizure-induced swim activity and mean velocity
- forebrain electrographic seizure activity in the same mutants after the locomotion assay (scn1Lab mutants [2]): electrographic seizure events were still observed

Structure (SMILES): O=c1n(CCCN2CCN(c3cccc(Cl)c3)CC2)nc2ccccn12 [trazodone]
- 5HT library first-pass locomotion screen (scn1Lab mutants [1]): positive hits
- toxicity in the locomotion assay (scn1Lab mutants [1]; 750 μM): toxic
- inhibition of spontaneous seizure behavior, concentration-response re-test (scn1Lab mutants [1]; concentrations between 100 and 750 μM, 30 or 90 min exposure, threshold ≥40%): robust inhibition of spontaneous seizure behavior
- epileptic seizure events in sample EEG traces (scn1Lab mutants [2]; FIG. 12B): suppression of epileptic seizure events
- EEG activity (scn1Lab mutants [2]; concentrations between 250 and 500 μM, n=15): effectively suppressed EEG activity

Structure (SMILES): COc1ccccc1N1CCN(CCCNc2cc(=O)n(C)c(=O)n2C)CC1 [urapidil]
- 5HT library first-pass locomotion screen (scn1Lab mutants [1]): positive hits

Structure (SMILES): COc1ccc(C(CN(C)C)C2(O)CCCCC2)cc1 (centres unmarked) [venlafaxine]
- 5HT library first-pass locomotion screen (scn1Lab mutants [1]): positive hits

Structure (SMILES): C=CC(N)CCC(=O)O (centres unmarked) [vigabatrin]
- Epileptiform event frequency (burst frequency; interictal- and ictal-like discharges) (scn1Lab mutants [2]; [3]): increased burst frequency
- fish in which epileptiform activity became more frequent following exposure (scn1Lab mutants [2]; seven fish per drug): 6 of 7

Structure (SMILES): O=C1Cc2cc(CCN3CCN(c4nsc5ccccc45)CC3)c(Cl)cc2N1 [ziprasidone]
- 5HT library first-pass locomotion screen (scn1Lab mutants [1]): positive hits

Structure (SMILES): CN(C)CCc1c[nH]c2ccc(C[C@H]3COC(=O)N3)cc12 [zolmitriptan]
- 5HT library first-pass locomotion screen (scn1Lab mutants [1]): positive hits
